Patent US20050049210A1, “Methods for the controlled delivery of pharmacologically active compounds” (IDEXX Laboratories, Inc., priority 2003, published 2005)

Experiments:
dogs = settings: tilmicosin in conventional form; cited from earlier work
[1] = Solubility of salt in water; type: physicochemical; settings: linoleic acid salt
Method: Terbinafine is a specific inhibitor of squaline epoxidase, a key enzyme in fungal ergosterol biosynthesis. The amine group of terbinafine was neutralized with linoleic acid in ispropyl myristate, resulting in a clear solution at 150 mg/ml.

[2] = Solubility of fatty acid salt in water immiscible solvent; type: physicochemical; settings: amine group neutralized with linoleic acid, in isopropyl myristate
Text: Oxytetracycline has one tertiary amine group, and the hydrochloride salt of oxytetracycline is readily soluble in water. Adding one mole of fatty acid to one mole of oxytetracycline creates a salt that is more soluble than unmodified oxytetracycline in isopropyl myristate.
When the two amine groups of tilmicosin are neutralized with any of several fatty acids (such as, for example, decanoic C10, lauric C12, myristic C14, palmitic C16, stearic C18, oleic C18, elaidic C18, linoleic C18, and erucic C22, sebacic, dodecanedioic), the resulting salt is soluble in pharmaceutically-acceptable water immiscible solvents. When a formulation of the salt (tilmicosin-linoleic acid) is sealed in a dialysis cassette and place in saline, the tilmicosin salt remains a cohesive mass, and tilmicosin is slowly released from the bag. The rate of release is a function of the chain length of the fatty acid, the solvent, and the tilmicosin-fatty acid salt concentration.
Roxithromycin is effective against a broad range of bacteria, and is used for the treatment of respiratory diseases in cattle. The amine group of roxithromycin can be neutralized with linoleic acid in isopropyl myristate, and a clear solution is obtained at 200 mg/ml.
Terbinafine is a specific inhibitor of squaline epoxidase, a key enzyme in fungal ergosterol biosynthesis. […]

| solubility of the resulting salt in water [1] | concentration at which a clear solution is obtained [2] | Molecule | dose normally lethal in dogs (dogs) |
| --- | --- | --- | --- |
|  |  | Tilmicosin | 50 mg/kg |
| highly insoluble | 150000 µg/mL | CN(C/C=C/C#CC(C)(C)C)Cc1cccc2ccccc12 [terbinafine, Terbinafine] |  |
|  | 200000 µg/mL | CC[C@H]1OC(=O)[C@H](C)[C@@H](OC2CC(C)(OC)C(O)C(C)O2)[C@H](C)[C@@H](OC2OC(C)CC(N(C)C)C2O)[C@](C)(O)C[C@@H](C)/C(=N\OCOCCOC)[C@H](C)[C@@H](O)[C@]1(C)O (stereo partly shown) [roxithromycin, Roxithromycin] |  |
